Measurements: US10138255B2, “Piperazine derivatives as HIV protease inhibitors” (Merck Sharp & Dohme Corp., priority 2014, dated 2018)

test system: HIV-1 (H9IIIB strain); experiment: Cell-Based HIV Infection Assay Using a Reporter (MT4-GFP cells); details: Human immunodeficiency virus 1, inflection point (IP) of viral growth inhibition; MT4-GFP cells infected with HIV-1 H9IIIB; 50% normal human serum; mean of at least two independent experiments; read-out: Cell Based IP (50% NHS)
Summary of the method: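 MT4-GFP cells (HIV LTR-driven GFP) bulk-infected with HIV-1 H9IIIB at low MOI for 24 h, washed, then exposed to compounds in RPMI plus 50% normal human serum, 0.4% DMSO. Infected cells counted at 24 and 48 h; R0 = 48 h/24 h ratio, inhibition normalised to DMSO and triple-drug control; IP from 4-parameter fit.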

In order of falling EC50:
1. CC(F)(F)c1ccc([C@H](c2ccc(Cl)cc2)[C@H](N)C(=O)Nc2cncc(F)c2CC[C@H]2CN[C@@H]3CCCS(=O)(=O)N2C3)cn1 [Example 246, (2S,3R)-2-amino-3-(4-chlorophenyl)-3-(6-(1,1-difluoroethyl)pyridin-3-yl)-9-(4-(2-((6R,9S)-2,2-dioxido-2-thia-1,7-diazabicyclo[4.3.1]decan-9-yl)ethyl)-5-fluoropyridin-3-yl)propanamide]  19 nM
2. CCC(CC)[C@H](c1ccc(Cl)cc1)[C@H](N)C(=O)Nc1cncc(F)c1CC[C@H]1CN[C@@H]2CCCS(=O)(=O)N1C2 [Example 242, (2S,3R)-2-amino-3-(4-chlorophenyl)-N-(4-(2-((6R,9S)-2,2-dioxido-2-thia-1,7-diazabicyclo[4.3.1]decan-9-yl)ethyl)-5-fluoropyridin-3-yl)-4-ethylhexanamide]  17 nM
3. CC1(C)C[C@@H]([C@H](c2ccc(Cl)c(F)c2)[C@H](N)C(=O)Nc2cncc(F)c2CC[C@H]2CN[C@@H]3CCCS(=O)(=O)N2C3)CCO1 [Example 243, (2S,3R)-2-amino-3-(4-chloro-3-fluorophenyl)-3-((S)-2,2-dimethyltetrahydro-2H-pyran-4-yl)-N-(4-(2-((6R,9S)-2,2-dioxido-2-thia-1,7-diazabicyclo[4.3.1]decan-9-yl)ethyl)-5-fluoropyridin-3-yl)propanamide]  8 nM
4. CC(C)O[C@H]1CC[C@H]([C@H](c2ccc(Cl)cc2)[C@H](N)C(=O)Nc2cncc(F)c2CC[C@H]2CN[C@@H]3CCCS(=O)(=O)N2C3)CC1 [Example 250, (βR)-4-chloro-N-(4-{2-[(6R,9S)-2,2-dioxido-2-thia-1,7-diazabicyclo[4.3.1]dec-9-yl]ethyl}-5-fluoropyridin-3-yl)-β-[(1r,4R)-4-(1-methylethoxy)cyclohexyl]-L-phenylalaninamide]  7.7 nM
5. CC(C)Oc1ncc([C@H](c2ccc(Cl)cc2)[C@H](N)C(=O)Nc2cccc(F)c2CC[C@H]2CN[C@@H]3CCCS(=O)(=O)N2C3)cn1 [Example 247, (βS)-4-chloro-N-(2-{2-[(6R,9S)-2,2-dioxido-2-thia-1,7-diazabicyclo[4.3.1]dec-9-yl]ethyl}-3-fluorophenyl)-β-[2-(1-methylethoxy)pyrimidin-5-yl]-L-phenylalaninamide]  7.2 nM
6. C[C@@H]1CC([C@H](c2ccc(Cl)c(F)c2)[C@H](N)C(=O)Nc2cncc(F)c2CC[C@H]2CN[C@@H]3CCCS(=O)(=O)N2C3)C[C@H](C)O1 (stereo partly drawn) [Example 245, (2S,3R)-2-amino-3-(4-chloro-3-fluorophenyl)-3-((2R,6S)-2,6-dimethyltetrahydro-2H-pyran-4-yl)-N-(4-(2-((6R,9S)-2,2-dioxido-2-thia-1,7-diazabicyclo[4.3.1]decan-9-yl)ethyl)-5-fluoropyridin-3-yl)propanamide]  5.8 nM
7. CCO[C@H]1CC[C@H](C(c2ccc(Cl)c(F)c2)[C@H](N)C(=O)Nc2cccc(F)c2CC[C@H]2CN[C@@H]3CCCS(=O)(=O)N2C3)CC1 (stereo partly drawn) [Example 248, (βR).4-chloro-N-(2-{2-[(6R,9S)-2,2-dioxido-2-thia-1,7-diazabicyclo[4.3.1]dec-9-yl]ethyl}-3-fluorophenyl)-β-[(1r,4R)-4-ethoxycyclohexyl]-3-fluoro-L-phenylalaninamide]  5.5 nM
8. N[C@H](C(=O)Nc1cccc(F)c1CC[C@H]1CN[C@@H]2CCCS(=O)(=O)N1C2)[C@H](c1cnc(C(F)(F)F)nc1)c1ccc(Cl)c(F)c1 [Example 249, (βS)-4-chloro-N-(2-{2-[(6R,9S)-2,2-dioxido-2-thia-1,7-diazabicyclo[4.3.1]dec-9-yl]ethyl}-3-fluorophenyl)-3-fluoro-β-[2-(trifluoromethyl)pyrimidin-5-yl]-L-phenylalaninamide]  5.1 nM
9. N[C@H](C(=O)Nc1cncc(F)c1CC[C@H]1CN[C@@H]2CCCS(=O)(=O)N1C2)[C@@H](c1ccc(Cl)c(F)c1)C1CCCCC1 [Example 244, (2S,3R)-2-amino-3-(4-chloro-3-fluorophenyl)-3-cyclohexyl-N-(4-(2-((6R,9S)-2,2-dioxido-2-thia-1,7-diazabicyclo[4.3.1]decan-9-yl)ethyl)-5-fluoropyridin-3-yl)propanamide]  4.3 nM
